Measurements: patent US12473344B2, “Chimeric antigen receptor polypeptides and methods of using same” (The Board of Trustees of the Leland Stanford Junior …, priority 2018, dated 2025)

Experiments:
[1] = test system: HCV NS3 protease; conditions: for CAR expression after removal of the protease inhibitor by washing / CAR expression after incubation with protease inhibitor: B7H3 CAR-SMASh
Procedure: (§1) Flow cytometry of samples was performed on an LSR Fortessa (BD Bioscience) and data were analyzed using FlowJo software. B7H3 CARs were detected using B7H3 Fc. GD2 and CD19 CARs were detected by 1A7 and FMC63 anti-idiotype antibody, respectively. CD 22 CARs were detected using biotinylated protein L and APC conjugated streptavidin. FACS plots were gated on live single T cells. Untransduced T cells (“Mock”) were used as controls.
(§2) CAR T cells were incubated in the indicated concentration of drug in T cell culture media (above) until analysis by FACS. Media was changed every 48-72 hours. Removal of drug was achieved by washing CAR T cells in T cell culture media 3 times.

[2] = test system: B7H3 (low)-expressing Nalm6 GFP tumor cells; experiment: Co-culture killing assay, low antigen (tumor GFP fluorescence); type: cell-based; conditions: 3 μM, various amounts of time, B7H3 (low) targets
Procedure: (§3) CAR T cells were co-cultured with indicated cancer cell lines, engineered to constitutively express green fluorescent protein, on day 10 post activation in 96-well plates at a ratio of 1:1 (50,000 cells each). Cancer cell fluorescence was monitored by time-lapse microscopy. Total integrated fluorescence intensity was calculated and plotted as a function of time. Co-culture supernatant was harvested after 24 hours of co-culture and analyzed for the presence of cytokine. Cytokine in culture supernatant was quantified using the Human IL-2 ELISA MAX™ and Human IFN-γ ELISA MAX™ Deluxe kits (BioLegend).

[3] = test system: T cells; experiment: T cell aggregation during in vitro culture (microscope images); type: cell-based; conditions: CAR-SMASh T cells incubated with inhibitor
[4] = test system: B7H3-expressing Nalm6 GFP tumor cells; experiment: Co-culture killing assay (tumor GFP fluorescence); type: cell-based; conditions: for cytotoxicity of B7H3 CAR-SMASh T cells incubated with drug prior to co-culture: 3 μM, various amounts of time (from 24 h)
Procedure: Cancer cell fluorescence was monitored by time-lapse microscopy. Total integrated fluorescence intensity was calculated and plotted as a function of time. […] Cytokine in culture supernatant was quantified using the Human IL-2 ELISA MAX™ and Human IFN-γ ELISA MAX™ Deluxe kits (BioLegend).

[5] = test system: markers of T cell exhaustion; experiment: Flow cytometry of activation/exhaustion-associated markers on CAR-SMASh T cells; type: cell-based, human
From the text: Asunaprevir (ASV), danoprevir (DPV), simeprevir (SPV), and grazoprevir (GPV) were purchased from ApexBio. Cell surface markers were stained with mouse monoclonal antibodies targeting PD-1 (PE-Cy7, eBioscience), LAG3 (PE, eBioscience), Tim-3 (BV 510, BioLegend), and B7-H3 (PE, R&D Systems). CAR molecules were stained with recombinant B7-H3 Fc (R&D Systems), protein L (Pierce Protein Biology), 1A7 anti-idiotype antibody, or FMC63 anti-idiotype antibody 136.20.1 conjugated in house using DyLight 650 Antibody Labeling Kit (Thermo Fisher). T cells were cultured in AIM V (Thermo Fisher) supplemented with 5% fetal bovine serum (Gibco), 100 U/mL rhIL-2 (PeproTech), 2 mM L-glutamine, 10 mM HEPES, 100 U/mL penicillin, and […] streptomycin (Invitrogen). Cancer cell lines were cultured in RPMI (Thermo Fisher) supplemented with 10% fetal bovine serum, 2 mM L-glutamine, 10 mM HEPES, 100 U/mL penicillin, and […] streptomycin.
as §1, §2

[6] = test system: B7H3-expressing Nalm6 GFP; experiment: Cytokine in co-culture supernatant (IFN-γ ELISA); type: cell-based
Procedure: as §3

[7] = test system: Nalm6 leukemia cells expressing B7H3 and firefly luciferase; experiment: In vivo Nalm6 leukemia model, bioluminescence imaging; parameters: species or system NSG mice; conditions: 50 mg/kg grazoprevir+25 mg/kg ritonavir three times per day by oral gavage
Procedure: NSG mice were infused with 10^6 Nalm6 leukemia cells expressing B7H3 and firefly luciferase. Four days later, mice were infused with 8×10^6 B7H3-BBz-SMASh CART cells or mock untransduced control cells. Mice that received B7H3-BBz-SMASh CAR T cells were either administered drug (50 mg/kg grazoprevir+25 mg/kg ritonavir) or vehicle (50% polyethylene glycol 300) three times per day by oral gavage. Bioluminescence imaging was used to follow the expansion of the firefly luciferase-expressing Nalm6 cells.
Assessed in this example was whether B7H3 CAR-nanoluciferase-SMASh CAR-T cell activity could be controlled in vivo against Nalm6 leukemia cells. NSG mice were infused with 10^6 Nalm6 leukemia cells expressing B7H3 antigen and firefly luciferase by tail vein injection. Four days later, mice were infused with 8×10^6 B7H3 CAR-nanoluciferase-SMASh CAR-T cells or mock un-transduced control T cells by tail vein injection. Mice in the “CAR OFF” group were administered 50 mg/kg grazoprevir+25 mg/kg ritonavir (a pharmacokinetic enhancer of grazoprevir) two to three times per day by oral gavage. Bioluminescence imaging was used to follow the expansion of the firefly luciferase-expressing Nalm6 cells.

[8] = test system: CAR expression on T cells in vivo; experiment: In vivo CAR expression by nanoluciferase imaging; conditions: MED8A mice, 50 mg/kg grazoprevir+25 mg/kg ritonavir two to three times per day by oral gavage
Procedure: In a further study, real-time expression of a C-terminal nanoluciferase (nLuc) domain-containing CAR was monitored in vivo by nanoluciferase-based imaging.
Next, in vivo CAR expression in the mice described in FIG. 27 was assessed by nanoluciferase imaging. Mice were injected with 200 μL of Nano-Glo substrate that was diluted 40× in PBS. After a 6-minute incubation period, the mice were imaged on an IVIS Spectrum imager.

[9] = test system: GFP-labeled tumor cells expressing cognate antigen; experiment: Co-culture killing assay of several CAR-SMASh T cells in presence of drug; type: cell-based; conditions: 3 μM asunaprevir
Procedure: as §3

[10] = loss of CAR expression and exhaustion markers (FIG. 6, FIG. 9)

Molecule: C=C[C@@H]1C[C@]1(NC(=O)[C@@H]1C[C@@H](Oc2ncc(OC)c3ccc(Cl)cc23)CN1C(=O)[C@@H](NC(=O)OC(C)(C)C)C(C)(C)C)C(=O)NS(=O)(=O)C1CC1 [asunaprevir, Asunaprevir]
- CD19 CAR-SMASh expression after incubation with protease inhibitor ([1]; 3 μM, various amounts of time): decrease in CD19 CAR-SMASh expression
- CD22 CAR-SMASh expression after incubation with protease inhibitor ([1]; 3 μM, various amounts of time): decrease in CD22 CAR-SMASh expression
- GD2 CAR-SMASh expression after incubation with protease inhibitor ([1]; 3 μM, various amounts of time): decrease in GD2 CAR-SMASh expression
- CAR expression after removal of the protease inhibitor by washing [1]: recovery of CAR expression
- CAR expression after incubation with protease inhibitor ([1]; 3 μM, various amounts of time): decrease in CAR expression
- time to full CAR re-expression after removal of drug ([1]; B7H3 SMASh-CAR T cells): ≤ 72 h
- time at which reduction in CAR expression was maximal ([1]; B7H3 SMASh-CAR T cells, 3 μM): 96 h
- time within which reduction in CAR expression occurred ([1]; B7H3 SMASh-CAR T cells, 3 μM): ≤ 24 h
- reduction of CAR expression ([1]; B7H3 SMASh-CAR T cells, ex vivo, 3 μM (FIG. 4)): greater than 90%
- CAR re-expression after removal of drug ([1]; B7H3 SMASh-CAR T cells, within 24 h of removal): approximately 1.5 log
- cytotoxicity of B7H3 CAR-SMASh T cells incubated with drug prior to co-culture [2]: reduced cytotoxicity
- T cell aggregation during in vitro culture [3]: resistant to aggregation
- cytotoxicity of B7H3 CAR-SMASh T cells incubated with drug prior to co-culture [4]: reduced cytotoxicity
- cytotoxicity of B7H3 CAR-SMASh T cells incubated with drug prior to co-culture ([4]; listed as asumaprevir): significant reduction in killing
- cytotoxicity of B7H3 CAR-SMASh T cells after drug removal prior to co-culture ([4]; drug removed for various amounts of time): potent killing of tumor targets indistinguishable from constitutively expressed, non-regulated CAR T cells
- expression of activation/exhaustion markers ([5]; CAR-SMASh T cells, 3 μM): reduces expression of activation/exhaustion markers
- relationship between inhibitor and expression of CAR molecules and activation/exhaustion-associated markers ([5]; FIG. 9): dose-dependent relationship
- concentration at which maximal effect was observed [5, 10]: 1 µM
- concentration at which near maximal effect was observed [5, 10]: 0.3 µM
- time to restoration of interferon production after removal [6]: ≤ 24 h
- interferon production in response to antigen expressing targets ([6]; drug-induced inhibition of CAR expression): very low levels

Molecule: C=C[C@@H]1C[C@]1(NC(=O)[C@@H]1C[C@@H]2CN1C(=O)[C@H](C(C)(C)C)NC(=O)O[C@@H]1C[C@H]1CCCCCc1nc3ccc(OC)cc3nc1O2)C(=O)NS(=O)(=O)C1CC1.O [grazoprevir]
- cytotoxic capacity of B7H3-BBz-SMASh CAR T cells in vivo [7]: dramatically reduces the cytotoxic capacity
- in vivo CAR expression (nanoluciferase imaging) [8]: diminished

Molecule: COc1ccc2c(O[C@@H]3C[C@H]4C(=O)N[C@]5(C(=O)NS(=O)(=O)C6CC6)C[C@H]5/C=C\CCCCN(C)C(=O)[C@@H]4C3)cc(-c3nc(C(C)C)cs3)nc2c1C [simeprevir]
- CAR expression after removal of the protease inhibitor by washing [1]: recovery of CAR expression
- CAR expression after incubation with protease inhibitor ([1]; 3 μM, various amounts of time): decrease in CAR expression

Molecule: GD2 CAR-SMASh: GD2 scFv (14G2A) CAR with 4-1BB, CD3 zeta and C-terminal SMASh tag (SEQ ID NO: 11)
- cytotoxicity against target cells in the presence of drug (off state) [9]: significant cytotoxicity
